Legend:
[1] = system: endothelin-induced contractions in isolated aorta rings; assay: Inhibition of endothelin-induced contractions in isolated aorta rings of the rat; type: cell-based, rat (Wistar-Kyoto); settings: for Dosage ratio (correcting shift): shift to higher values of the EC50 of endothelin induced by 100 μm of test compound, endothelium removed
Procedure: II. Inhibition of endothelin-induced contractions in isolated aorta rings of the rat
Rings with a thickness of 5 mm were dissected from the thorax aorta of adult Wistar-Kyoto rats. The endothelium was removed by rubbing the internal surface slightly. Each ring was immersed in an isolated bath at 37° C. in 10 ml of Krebs-Henseleit solution while gassing with 95% O2 and 5% CO2. The isometric tension of the rings was measured. The rings were stretched to an initial tension of 3 g. After incubation with the test compound or vehicle for 10 minutes cumulative doses of endothelin-1 were added. The activity of the test compound was determined by calculating the dosage ratio, that is, the correcting shift (shift to higher values) of the EC50 of endothelin induced by 100 μm of test compound, whereby EC50 denotes the endothelin concentration required for a half-maximum contraction. […] The EC50 of endothelin in the absence of test compounds is 0.3 nM.

endothelin receptors = assay: Inhibition of endothelin binding to human placenta membranes (125I-endothelin); settings: concentration required to inhibit the specific binding of 125I-endothelin by 50%, 125I-endothelin 20 pM, 20° C. for 2 hours or 4° C. for 24 hours
Procedure: I. Inhibition of endothelin binding to human placenta membranes (see Life Sci 44:1429 (1989)
Human placenta is homogenized in 5 mM Tris buffer, pH 7.4, which contains 1 mM MgCl2 and 250 mM sucrose. The product of the homogenization is centrifuged at 4° C. for 15 minutes at 3000 g. The supernatant containing the plasma membrane fractions is centrifuged for 30 minutes at 72000 g and the precipitate obtained from, in each case, 10 g of original tissue is suspended in 1 ml of 75 mM Tris buffer, pH 7.4, containing 25 mM MgCl2 and 250 mM sucrose and freeze-dried at -20° C. in 1 ml aliquots.
For the binding assay, the freeze-dried membrane preparations are thawed and, after centrifugation at 20° C. for 10 minutes at 25000 g, re-suspended in assay buffer (50 mM Tris buffer, pH 7.4, containing 25 mM MnCl2, 1 mM EDTA and 0.5% bovine serum albumin). 100 μl of this membrane suspension, containing 70 μg of protein, are incubated with 50 μl of ^125 I-endothelin (specific activity 2200 Ci/mMol) in assay buffer (25000 cpm, final concentration 20 pM) and 100 μl of assay buffer which contains varying concentrations of the test compound. The incubation is carried out at 20° C. for 2 hours or at 4° C. for 24 hours. The separation of free and membrane-bound radioligands is carried out by filtration over a glass fiber filter.
The inhibitory activity of compounds of formula I determined in this test procedure is given in Table 1 as the IC50, that is, as the concentration [μM] which is required to inhibit the specific binding of ^125 I-endothelin by 50%.

vasoconstriction = assay: Inhibitory activity on vasoconstriction in vivo in the rat (renal ischemia, renal blood flow); settings: 10 minutes prior to 45 min renal ischemia, control reduced by 43±4%
Procedure: III. The inhibitory activity of the compounds of formula I on vasoconstriction can be observed in vivo in the rat in the test procedure described hereinafter:
Rats were anaesthetized with Na thiobutabarbital (100 mg/kg i.p.). […] A Doppler probe was placed around the left renal artery and attached to a Doppler measuring device. A renal ischemia was produced by pinching off the left renal artery at its point of emergence for 45 minutes. The test compounds were administered 10 minutes prior to the onset of the ischemia intra-arterially (i.a.) in doses of 5 mg/kg or intraveneously (i.v) in doses of 10 mg/kg. In control experiments, the renal blood flow was reduced by 43±4% in comparison to the pre-ischemic value.

| Compound | IC50 (endothelin receptors) | EC50 ([1]; in the absence of test compounds, half-maximum contraction) | Dosage ratio (correcting shift) [1] | % Decrease in the renal of blood flow (vasoconstriction; i.v., 10 mg/kg) | % Decrease in the renal of blood flow (vasoconstriction; i.a., 5 mg/kg) |
| --- | --- | --- | --- | --- | --- |
| endothelin: endothelin-1, contractile agonist added in cumulative doses to rat aorta rings [reference compound] | – | 0.0003 µM | – | – | – |
| COc1ccc(-c2c(NS(=O)(=O)c3ccc(C(C)C)cc3)ncnc2OCCO)cc1 [Example 54, N-[6-(2-hydroxyethoxy)-5-(p-methoxyphenyl)-4-pyrimidinyl]-p-isopropylbenzene-sulfonamide] | 3 µM | – | 21 | – | – |
| O=S(=O)(Nc1ncnc(OCCO)c1-c1ccc(Cl)cc1)c1ccc(C(F)(F)F)cc1 [Example 1, N-[5-(p-chlorophenyl)-6-(2-hydroxyethoxy)-4-pyrimidinyl]-α,α,α-trifluoro-p-toluenesulfonamide] | 5 µM | – | 30 | – | 7% |

Further lines, with some results ahead:

| IC50 (endothelin receptors) | Compound | EC50 ([1]; in the absence of test compounds, half-maximum contraction) | Dosage ratio (correcting shift) [1] | % Decrease in the renal of blood flow (vasoconstriction; i.v., 10 mg/kg) | % Decrease in the renal of blood flow (vasoconstriction; i.a., 5 mg/kg) |
| --- | --- | --- | --- | --- | --- |
| 2 µM | COc1ccccc1Cc1c(NS(=O)(=O)c2ccc(C(C)(C)C)cc2)ncnc1OCCO [Example 64, p-t-butyl-N-[6-(2-hydroxyethoxy)-5-(o-methoxy-benzyl)-4-pyrimidinyl]benzenesulfonamide] | – | 19 | – | – |
| 0.5 µM | CSc1ccccc1Cc1c(NS(=O)(=O)c2ccc(C(C)C)cc2)ncnc1OCCO [Example 66] | – | 96 | – | – |
| 1 µM | Cc1ccc(-c2c(NS(=O)(=O)c3ccc(C(C)(C)C)cc3)ncnc2OCCO)cc1 [Example 84, p-tert-butyl-N-[6-(2-hydroxyethoxy)-5-p-tolyl-4-pyrimidinyl]benzenesulfonamide] | – | 106 | – | – |
| 0.7 µM | Cc1ccc(-c2c(NS(=O)(=O)c3ccc(C(C)C)cc3)ncnc2OCCO)cc1 [Example 83] | – | 86 | 29% | – |
| 1.6 µM | COc1ccccc1Cc1c(NS(=O)(=O)c2ccc(C(C)C)cc2)ncnc1OCCO [Example 63] | – | 23 | – | – |
